# Source: paper PMC3367954, “The Influence of pH on the Specific Adhesion of P Piliated Escherichia coli” (PLoS ONE, 2012)
# Target: T1, PapG adhesin (isolated P pili) (Escherichia coli, UniProt P13720)
# T1 construct: gene papGI; native PapG at the tip of isolated P pili (rod of PapA), sheared from E. coli HB101/pPAP5, ammonium sulfate precipitated; PapG not purified separately
# Assay: surface plasmon resonance (Biacore X100), isolated P pili over immobilised galabiose-BSA
# Type: binding
# Conditions: galabiose as BSA conjugate (about 30 per BSA) on CM3 chip, BSA reference subtracted; citrate-phosphate buffer pH 3.5-8.0, 25 °C; multivalent
# T1 sequence (P13720 22-335): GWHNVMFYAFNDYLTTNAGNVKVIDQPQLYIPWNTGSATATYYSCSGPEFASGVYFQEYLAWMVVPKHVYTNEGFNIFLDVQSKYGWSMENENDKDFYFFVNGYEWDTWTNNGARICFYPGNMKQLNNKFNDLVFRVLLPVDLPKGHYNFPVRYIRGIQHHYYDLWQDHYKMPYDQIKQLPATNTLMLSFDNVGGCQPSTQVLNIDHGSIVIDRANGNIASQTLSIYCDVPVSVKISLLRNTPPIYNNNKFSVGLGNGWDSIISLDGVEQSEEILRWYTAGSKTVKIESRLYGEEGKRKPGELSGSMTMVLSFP
smiles,measurement,value
"OC[C@H]1O[C@H](O[C@@H]2[C@H](O)[C@@H](O)C(O)O[C@@H]2CO)[C@H](O)[C@@H](O)[C@H]1O (stereo partly drawn) [galabiose, α-D-Gal-(1–4)-β-D-Gal]","surface plasmon resonance (Biacore X100), isolated P pili over immobilised galab",the binding stability of both isolated pili and bacteria to galabiose-coated surfaces was high
